Measurements taken from article PMC11167047 (Cell Death Discovery, 2024).
Where two headings read alike, the source gives them in different places.

Columns and labels:
Ramos = assay: AlamarBlue viability assay; format: cell-based, human; details: cytotoxicity, 24 h, read-out: IC50 (Ramos)
Experimental: The resazurin reduction assay, which is also known as AlamarBlue® assay, was used for the determination of cell viability in all cytotoxicity determinations shown in the present work, as previously described [22]. Briefly, cells were seeded at a specific density depending on the incubation time (24 h: 1 × 10^6 cells/ml) in a 96-well plate and incubated with increasing compound concentrations (0.01–30 µM). After the specified treatment time, resazurin (Sigma, #R7017) was added to a final concentration of 40 µM. […] The viability of control cells was set to 100% and all other values were normalized to the control condition, the dose-response curves were then fitted with Prism v7.01 (GraphPad software, La Jolla, CA, USA). The reduction of resazurin to resorufin is proportional to aerobic respiration; therefore, it is used as a measure for the cell viability and cytotoxicity of a tested compound.

Ramos cells = assay: cell cycle analysis (Nicoletti assay); format: cell-based, human; details: 24 h, sublethal dose, with QVD
Experimental: DNA content during cell cycle and hypodiploid apoptotic nuclei were measured by the method of Nicoletti et al.. […] Hypodiploid nuclei were measured in logarithmic mode for apoptosis determination. Flow-cytometry analysis was performed on an LSRFortessa^TM (Becton, Dickinson, Heidelberg, Germany) and data analysis was performed using FlowJo_V10 (BD Biosciences).

cyclin B1 expression = assay: immunoblotting of cyclin B1 in Ramos cells; format: cell-based, human; details: 24 h
Experimental: Cells were seeded at a density of 2 × 10^6 cells, treated as specified and harvested by centrifugation at 3000 rpm for 5 min, followed by freezing in liquid nitrogen. The cell pellets were thawed on ice and quick-frozen and defrozen in liquid nitrogen for three times, then lysed on ice in lysis buffer (20 mM Tris-HCl, 150 mM NaCl, 1% v/v Triton X-100, 0.5 mM EDTA, 10 mM NaF, 2.5 mM Na4P2O7, protease inhibitor (Sigma, #P2714)) for 30 min, accompanied by vortexing. Subsequently, centrifugation 13,300 rpm for 15 min purified cell lysates from cell debris. The supernatant was transferred to a new tube and the protein concentration was determined by Bradford assay. The samples were diluted with sample buffer. SDS-Page and Western Blot were conducted in accordance with standard workflows. […] The antibody baths were stored at 4 °C and re-used.
The density of the individual protein band was determined using Image Studio^TM Lite Version 5.2. The density of each protein was divided by the average of all bands of this protein. The ratios of the protein of interest were normalized to the ratio of the respective loading control. To determine the fold change, each normalized ratio was divided by the normalized band of the control line (untreated cells). Fold change is 1 for the control line, n ≥ 2. The results are shown as mean ± standard deviation and were visualized with GraphPad Prism 7.

[1] = system: retinoblastoma (RB) protein phosphorylation; assay: immunopurification of RB from Ramos cells; format: cell-based, human
Experimental: For immunopurification (IP) the Dynabeads^TM Protein G Immunoprecipitation kit from Invitrogen (#10007D) was used. For IP, 2 × 10^6 cells were seeded in a 24-well plate and treated with the appropriate compound. After incubation, cells were lysed with NP-40 containing lysis buffer (Hepes-NaOH 50 mM pH 7.5, NaCl 150 mM, NP-40 1% v/v, MgCl2 2.5 mM, 1x Protease inhibitor (cOmplete^TM, EDTA-free Protease Inhibitor Cocktail), 1x Phosphatase Inhibitor (PhosSTOP^TM)) for 30 min. A protein content of 50 µg per IP was used, the protein concentration was measured by Bradford assay (Bio-Rad #5000006) with the photometer. Protein G is conjugated to the magnetic Dynabeads^TM. In the first step, the Dynabeads^TM were incubated for 10 min with the specific RB antibody (Abcam #ab181616; rabbit), which was used in a dilution of 1:80. The antibody bound to the conjugated protein G and a bead-antibody complex was formed. By placing the tube on a magnet, the beads were easily separated from the solution and the supernatant could be removed. The bead-antibody complex was washed once with Ab binding and washing buffer. In the second step, the cell lysate was incubated for 10 min with the bead-antibody complex to allow the RB protein from the lysate to bind to the antibody. The bead complex was washed several times with washing buffer by placing the tube on the magnet and removing the supernatant. […]

[2] = system: CLL17 chronic lymphocytic leukemia cells; details: read-out: IC50 (CLL17); primary patient cells, 24 h
Excerpt: For chronic lymphocytic leukemia, mononuclear cells were isolated from peripheral blood using a Ficoll gradient (GE Healthcare). Primary cells from other lymphoma entities were isolated as previously described [80]. All cells were cryopreserved after isolation and thawed as previously described [81].
The resazurin reduction assay, which is also known as AlamarBlue® assay, was used for the determination of cell viability in all cytotoxicity determinations shown in the present work, as previously described [22]. Briefly, cells were seeded at a specific density depending on the incubation time (24 h: 1 × 10^6 cells/ml) in a 96-well plate and incubated with increasing compound concentrations (0.01–30 µM). After the specified treatment time, resazurin (Sigma, #R7017) was added to a final concentration of 40 µM. […] The viability of control cells was set to 100% and all other values were normalized to the control condition, the dose-response curves were then fitted with Prism v7.01 (GraphPad software, La Jolla, CA, USA).

SMILES	IC50 (Ramos; as given in text)	IC50 (Ramos; listed as Meriolin 16)	IC50 (Ramos)	effect on cell cycle phases (Ramos cells)	expression of cyclin B1 (cyclin B1 expression)	phosphorylation of RB at p-Ser612 and p-Thr821 (immunopurified RB) ([1]; 1 µM, 4 h)	phosphorylation of RB at p-Ser612 and p-Thr821 (immunopurified RB) ([1]; 24 h)	IC50 [2]
COc1ccnc2[nH]cc(-c3cc(N)nc(N)c3)c12 [meriolin 16]	20 to 30 nM	20 nM	30 nM	only a slight shift to G2 phase	reduced the expression of cyclin B1	less phosphorylated	completely abrogated	50 nM
c1ccc(CNc2cc(-c3c[nH]c4ncccc34)ccn2)cc1 [meriolin 36]				only a slight shift to G2 phase	rather increased the expression of cyclin B1			110 nM
